Half-life data for four compounds are collected here from ChEMBL document CHEMBL5247667, “Design, synthesis and characterizations of prodrugs of brexanolone” (Bioorg Med Chem Lett, 2023).

A short description of the first data set: Metabolic stability in human plasma assessed as half life at 1 uM incubated for 60 min by LC-MS/MS method. Type of data set: ADME, cell-free.
Consider `CC(=O)OCCCCC(=O)O[C@@H]1CC[C@@]2(C)[C@@H](CC[C@@H]3[C@@H]2CC[C@]2(C)[C@@H](C(C)=O)CC[C@@H]32)C1`, for which the half-life – broadly, how long it takes for the measured level to halve – at 1 µM was 107 min.

Consider `CC(=O)OCCCC(=O)O[C@@H]1CC[C@@]2(C)[C@@H](CC[C@@H]3[C@@H]2CC[C@]2(C)[C@@H](C(C)=O)CC[C@@H]32)C1`, for which the half-life at 1 µM stood at 176 min.

On to `CCCCCCCC(=O)O[C@@H]1CC[C@@]2(C)[C@@H](CC[C@@H]3[C@@H]2CC[C@]2(C)[C@@H](C(C)=O)CC[C@@H]32)C1`, for which the half-life at 1 µM is greater than 300 min.

Consider `CC(=O)OCCCC(C)C(=O)O[C@@H]1CC[C@@]2(C)[C@@H](CC[C@@H]3[C@@H]2CC[C@]2(C)[C@@H](C(C)=O)CC[C@@H]32)C1` (some centres undefined), for which the half-life at 1 µM was determined as 145 min.

A further data set is described as follows: Metabolic stability in Sprague-Dawley rat plasma assessed as half life at 1 uM incubated for 60 min by LC-MS/MS method. Format: ADME, cell-free.
For the compound `CC(=O)OCCCC(=O)O[C@@H]1CC[C@@]2(C)[C@@H](CC[C@@H]3[C@@H]2CC[C@]2(C)[C@@H](C(C)=O)CC[C@@H]32)C1`, the half-life at 1 µM came out at 1.6 min.

Another data set in a line: Metabolic stability in beagle dog plasma assessed as half life at 1 uM incubated for 60 min by LC-MS/MS method. Format: ADME, cell-free, Canis lupus familiaris.
Regarding `CC(=O)OCCCCC(=O)O[C@@H]1CC[C@@]2(C)[C@@H](CC[C@@H]3[C@@H]2CC[C@]2(C)[C@@H](C(C)=O)CC[C@@H]32)C1`, the half-life at 1 µM was 87 min.

On to `CC(=O)OCCCC(=O)O[C@@H]1CC[C@@]2(C)[C@@H](CC[C@@H]3[C@@H]2CC[C@]2(C)[C@@H](C(C)=O)CC[C@@H]32)C1`, for which the half-life at 1 µM stood at 138 min.

For `CC(=O)OCCCC(C)C(=O)O[C@@H]1CC[C@@]2(C)[C@@H](CC[C@@H]3[C@@H]2CC[C@]2(C)[C@@H](C(C)=O)CC[C@@H]32)C1` (some centres undefined), the half-life at 1 µM is 233 min.

A short description of another data set: Metabolic stability in beagle dog liver S9 fraction assessed as half life at 1 uM incubated for 60 min by LC-MS/MS method. Type of data set: ADME, subcellular, Canis lupus familiaris.
With `CC(=O)OCCCCC(=O)O[C@@H]1CC[C@@]2(C)[C@@H](CC[C@@H]3[C@@H]2CC[C@]2(C)[C@@H](C(C)=O)CC[C@@H]32)C1`, the half-life at 1 µM stood at 1 min.

On to `CC(=O)OCCCC(C)C(=O)O[C@@H]1CC[C@@]2(C)[C@@H](CC[C@@H]3[C@@H]2CC[C@]2(C)[C@@H](C(C)=O)CC[C@@H]32)C1` (some centres undefined), for which the half-life at 1 µM is 1 min.

A further data set in a line: Metabolic stability in human liver S9 fraction assessed as half life at 1 uM incubated for 60 min by LC-MS/MS method. Format: ADME, subcellular.
Take `CC(=O)OCCCCC(=O)O[C@@H]1CC[C@@]2(C)[C@@H](CC[C@@H]3[C@@H]2CC[C@]2(C)[C@@H](C(C)=O)CC[C@@H]32)C1`: the half-life at 1 µM turned out to be 0.8 min.

Regarding `CC(=O)OCCCC(=O)O[C@@H]1CC[C@@]2(C)[C@@H](CC[C@@H]3[C@@H]2CC[C@]2(C)[C@@H](C(C)=O)CC[C@@H]32)C1`, the half-life at 1 µM was 0.9 min.

On to `CCCCCCCC(=O)O[C@@H]1CC[C@@]2(C)[C@@H](CC[C@@H]3[C@@H]2CC[C@]2(C)[C@@H](C(C)=O)CC[C@@H]32)C1`, for which the half-life at 1 µM was 34.3 min.

Consider `CC(=O)OCCCC(C)C(=O)O[C@@H]1CC[C@@]2(C)[C@@H](CC[C@@H]3[C@@H]2CC[C@]2(C)[C@@H](C(C)=O)CC[C@@H]32)C1` (some centres undefined), for which the half-life at 1 µM was found to be 0.9 min.
